Data on four compounds can be found in patent publication US11420976B2 (priority 2020, dated 2022).

pEC50: −log10 of the molar value. Where only a bound is given, the exact number is not on record here.

One experiment deals with HRSV. Conditions: high risk infants, prophylactic use; cited from earlier work.
Experiment [1] has as its system rHMPV-GFP (recombinant HMPV CAN97-83, MPV-GFP1). Kind of experiment: HMPV antiviral assay (eGFP fluorescence in Vero E6 cells). The note with it: Vero C1008, 120 h, read-out: rHMPV-GFP EC50. Format: cell-based. How it is done: HMPV antiviral activity was evaluated using a recombinant version of HMPV CAN97-83 engineered to contain the coding sequence for enhanced green fluorescence protein (eGFP) in the 3′ end of the virus genome (MPV-GFP1, ViraTree). Vero E6 cells (ATCC #CCL-7) were seeded at a density of 12,000 cells/100 μL/well into 96-well cell plates (VENDOR) one day prior to the assay. On the day of screening, the cell culture medium was aspirated from the wells and cells were washed twice with serum-free Eagle's Modified Essential Medium (EMEM, ATCC #) containing 1% penicillin-streptomycin (Invitrogen) (SF-EMEM). Cell washes were performed by dispensing 100 μL SF-EMEM per well and immediately aspirating the wash medium from the well. Following the second wash step, serum-free OptiMEM (Invitrogen, Cat No.) (SF-OptiMEM) containing 0.5 μg/mL TPCK-Trypsin (VENDOR) and 1% penicillin-streptomycin was added to the cells at 50 μL/well. Compounds were added into the 96-well plates using a JANUS automated liquid handling system (VENDOR). Compounds were initially diluted 1:50 into an intermediate 96-well plate containing SF-OptiMEM prior to transfer to the assay plate (25 μL/well). Each of the test compounds was tested in duplicate wells at final concentrations starting from 8 μM or 2 μM using ½ stepwise dilutions for a total of 8 points. Virus infection was performed by preparing a working stock of MPV-GFP1 at a multiplicity of infection (MOI) equal to 0.05/25 μL and aliquoting 25 μL of virus inoculum to the compound and positive control wells. SF-OptiMEM was added (25 μL/well) to the appropriate wells to serve as a virus-free negative control for the assay. The final DMSO concentration of all wells is 0.5%. Plates were incubated at 32° C., 5% CO2 for 5 days. After 5 days incubation, eGFP fluorescence intensity was measured at […] using a Spectramax i3X plate reader (VENDOR). Percent viral inhibition was calculated using the following equation: y=[[…]]×100 Where XQ is the fluorescence intensity measured in a well containing recombinant MPV-GFP1-infected, compound-treated cells and XP is the average fluorescence intensity measured in the wells containing untreated cells infected with recombinant virus. EC50 values were then calculated by non-linear regression using a four parameter curve logistic equation. The curve fit model employed was XLFit Dose Response One Site Model 200: y=(A+(B/(1+((x/C)^D)))) Where A is the minimum y value, B is the maximum y value, C is the log EC50 value, and D is the slope factor. The EC50 of each compound is listed in Table 2 and EC50 ranges are as follows: A<0.2 μM; B≥0.2 μM.

Experiment [2] has as its system Human RSV-A (“Long” strain). The experiment in a line: RSV-A assay (CPE, ATPlite readout in Hep-2 cells). The note with it: human respiratory syncytial virus, 120 h; Hep-2 cells, MOI 0.1, 5-day incubation, ATPlite; read-out: Human RSV-A (“Long” strain) EC50. It counts as cell-based. The essentials: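 Hep-2 cells (8,000/well) infected with RSV-A Long at MOI 0.1 in the presence of 2-fold compound dilutions, in duplicate. After 5 days, protection from cytopathic effect read as cellular ATP by ATPlite luminescence, with virus-only and cell-only controls; EC50 reported.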

As to Palivizumab, in the experiment on HRSV, the “effective in reducing hospitalizations” value is given as 60%.

By pEC50 is commonly meant the negative decadic logarithm of the EC50, by convention in mol/L. With `COc1cc(C(=O)NC[C@](O)(c2cc3c(c(-c4ccc(F)cc4)n2)OC[C@]3(N)C(F)(F)F)C(F)(F)F)ccc1OC1CC1` [Example 3, N—((S)-2-((S)-3-amino-7-(4-fluorophenyl)-3-(trifluoromethyl)-2,3-dihydrofuro[2,3-c]pyridin-5-yl)-3,3,3-trifluoro-2-hydroxypropyl)-4-cyclopropoxy-3-methoxybenzamide], the negative logarithm of the EC50 (pEC50) is less than 6.70 in experiment [1] and greater than 6.70 in experiment [2].

Turning to `C[C@](O)(CNC(=O)c1ccc(OC2CC2)c(OC2CC2)c1)c1cc2c(c(-c3ccc(F)cc3)n1)OC[C@@]2(N)C(F)(F)F` [Example 20, N—((S)-2-((R)-3-amino-7-(4-fluorophenyl)-3-(trifluoromethyl)-2,3-dihydrofuro[2,3-c]pyridin-5-yl)-2-hydroxypropyl)-3,4-dicyclopropoxybenzamide], the negative logarithm of the EC50 (pEC50) in experiment [1] and in experiment [2] was greater than 6.70 each time.

In the case of `COc1cc(C(=O)NC[C@](C)(O)c2cc3c(c(-c4ccc(F)cc4)n2)OC[C@@]3(N)C(F)(F)F)ccc1OC1CC1` [Example 7, N—((S)-2-((R)-3-amino-7-(4-fluorophenyl)-3-(trifluoromethyl)-2,3-dihydrofuro[2,3-c]pyridin-5-yl)-2-hydroxypropyl)-4-cyclopropoxy-3-methoxybenzamide], the negative-log EC50 (pEC50) in experiment [1] and in experiment [2] was greater than 6.70 throughout.
